Values of other authors as cited in US11566140B2, “Exterior coating composition” (Troy Corporation, priority 2019, dated 2023).

Details: 5 grams of pure BIT completely soluble in 100 ml of methanol

Structure (SMILES): O=c1[nH]sc2ccccc12 [BIT, 1,2-benzisothiazolin-3-one]
- solubility in methanol: greater than 5%
